Data published in ChEMBL document CHEMBL5325448, “Design, synthesis and biological evaluation of phosphoroxy quinazoline derivatives as potential EGFRT790M/C797S inhibitors” (Bioorg Med Chem, 2023).

Assays:
[1] = target: Epidermal growth factor receptor (Homo sapiens, UniProt P00533, C797S/L858R/T790M); assay: Inhibition of EGFR L858R/T790M/C797S triple mutant (unknown origin) using TK as substrate incubated for 120 mins in presence of ATP by HTRF assay
[2] = target: Epidermal growth factor receptor (Homo sapiens, UniProt P00533, C797S/EX19DEL/T790M); assay: Inhibition of EGFR Del19/T790M/C797S triple mutant (unknown origin) using TK as substrate incubated for 120 mins in presence of ATP by HTRF assay
Epidermal growth factor receptor (Homo sapiens, UniProt P00533, C797S/EX19DEL/T790M), sequence (P00533 whole entry, looked up, stated change not applied): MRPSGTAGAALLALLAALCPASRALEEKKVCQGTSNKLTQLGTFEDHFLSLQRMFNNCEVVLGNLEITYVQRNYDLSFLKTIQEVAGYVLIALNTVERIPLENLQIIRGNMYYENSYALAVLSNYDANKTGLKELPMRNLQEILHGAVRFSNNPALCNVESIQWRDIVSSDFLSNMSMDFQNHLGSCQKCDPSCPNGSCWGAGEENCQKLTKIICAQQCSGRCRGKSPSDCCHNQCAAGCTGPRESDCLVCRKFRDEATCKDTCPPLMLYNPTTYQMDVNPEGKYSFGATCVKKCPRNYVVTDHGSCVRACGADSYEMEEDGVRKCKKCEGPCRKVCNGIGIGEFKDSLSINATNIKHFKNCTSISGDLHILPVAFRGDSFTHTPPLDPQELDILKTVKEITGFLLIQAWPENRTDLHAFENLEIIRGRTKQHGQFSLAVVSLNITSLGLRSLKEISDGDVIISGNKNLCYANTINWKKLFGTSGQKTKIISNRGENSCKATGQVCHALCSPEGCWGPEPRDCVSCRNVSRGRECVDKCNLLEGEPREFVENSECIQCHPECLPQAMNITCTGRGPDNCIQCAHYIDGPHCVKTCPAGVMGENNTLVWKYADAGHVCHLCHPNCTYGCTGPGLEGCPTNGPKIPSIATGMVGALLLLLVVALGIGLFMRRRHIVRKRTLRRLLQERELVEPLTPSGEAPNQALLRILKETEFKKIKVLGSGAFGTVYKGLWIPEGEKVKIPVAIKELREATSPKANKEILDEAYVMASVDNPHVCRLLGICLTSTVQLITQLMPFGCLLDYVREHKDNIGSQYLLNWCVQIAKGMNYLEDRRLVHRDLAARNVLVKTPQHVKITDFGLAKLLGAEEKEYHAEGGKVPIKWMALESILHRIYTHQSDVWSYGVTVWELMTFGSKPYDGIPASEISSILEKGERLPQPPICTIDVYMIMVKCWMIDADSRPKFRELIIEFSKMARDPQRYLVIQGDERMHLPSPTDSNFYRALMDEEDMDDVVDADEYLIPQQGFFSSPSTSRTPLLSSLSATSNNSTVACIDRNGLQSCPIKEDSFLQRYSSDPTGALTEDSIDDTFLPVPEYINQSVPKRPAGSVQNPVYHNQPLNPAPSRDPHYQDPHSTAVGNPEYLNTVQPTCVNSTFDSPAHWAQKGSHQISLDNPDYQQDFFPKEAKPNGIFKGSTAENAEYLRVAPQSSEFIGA

[3] = Cytotoxicity against mouse Ba/F3 EGFR-Del19/T790M/C797S cells assessed as cell growth inhibition measured after 72 hrs by CellTiter-Glo luminescent assay; assay type: functional, cell-based
A-431 = assay: Cytotoxicity against human A-431 cells assessed as cell growth inhibition incubated for 72 hrs by CellTiter-Glo luminescent assay; assay type: functional, cell-based; conditions: A-431, 72 h
[4] = target: Epidermal growth factor receptor (Homo sapiens, UniProt P00533); assay: Inhibition of wild type EGFR (unknown origin) using TK as substrate incubated for 120 mins in presence of ATP by HTRF assay
Epidermal growth factor receptor (Homo sapiens, UniProt P00533), sequence (P00533 whole entry): as the sequence (P00533 whole entry, looked up, stated change not applied) above

[5] = Cmax in BALB/c mouse at 5 mg/kg, po measured upto 24 hrs by LC-MS/MS analysis; assay type: ADME, organism-based; set-up: dose 5 mg/kg, time < 24 hrs, route po; conditions: in vivo
[6] = AUC (0 to t) in BALB/c mouse at 5 mg/kg, po measured upto 24 hrs by LC-MS/MS analysis; assay type: ADME, organism-based; set-up: time < 24 hrs, dose 5 mg/kg, route po; conditions: in vivo
[7] = AUC (0 to infinity) in BALB/c mouse at 5 mg/kg, po measured upto 24 hrs by LC/MS-MS analysis; assay type: ADME, organism-based; set-up: time < 24 hrs, dose 5 mg/kg, route po; conditions: in vivo
[8] = Half life in BALB/c mouse at 5 mg/kg, po measured upto 24 hrs by LC/MS-MS analysis; assay type: ADME, organism-based; conditions: in vivo
[9] = Antitumor activity against mouse Ba/F3 EGFR-Del19/T790M/C797S cells xenografted in BALB/c nude mouse assessed as tumor growth inhibition at 30 mg/kg, po administered once a day for 14 consecutive days and measured twice a week relative to control; assay type: functional; conditions: 336 h, time 14 day, read-out: TGI
[10] = MRT in BALB/c mouse at 5 mg/kg, po measured upto 24 hrs by LC-MS/MS analysis; assay type: ADME, organism-based; conditions: in vivo
PC-9 [11] = assay: Antitumor activity against human PC-9 cells harboring EGFR Del19/T790M/C797S triple mutant xenografted in NOD/SCID mouse assessed as tumor growth inhibition at 15 mg/kg, po administered once a day for 21 consecutive days and measured twice a week relative to control; assay type: functional; conditions: PC-9, 504 h, time 21 day, read-out: TGI
PC-9 [12] = assay: Antitumor activity against human PC-9 cells harboring EGFR Del19/T790M/C797S triple mutant xenografted in NOD/SCID mouse assessed as tumor growth inhibition at 30 mg/kg, po administered once a day for 21 consecutive days and measured twice a week relative to control; assay type: functional; conditions: PC-9, 504 h, time 21 day, read-out: TGI
[13] = Antitumor activity against mouse Ba/F3 EGFR-Del19/T790M/C797S cells xenografted in BALB/c nude mouse assessed as tumor growth inhibition at 15 mg/kg, po administered once a day for 14 consecutive days and measured twice a week relative to control; assay type: functional; conditions: 336 h, time 14 day, read-out: TGI

Epidermal growth factor receptor (Homo sapiens, UniProt P00533, C797S/L858R/T790M), sequence (P00533 25-1210 T790M/C797S/L858R limits assumed): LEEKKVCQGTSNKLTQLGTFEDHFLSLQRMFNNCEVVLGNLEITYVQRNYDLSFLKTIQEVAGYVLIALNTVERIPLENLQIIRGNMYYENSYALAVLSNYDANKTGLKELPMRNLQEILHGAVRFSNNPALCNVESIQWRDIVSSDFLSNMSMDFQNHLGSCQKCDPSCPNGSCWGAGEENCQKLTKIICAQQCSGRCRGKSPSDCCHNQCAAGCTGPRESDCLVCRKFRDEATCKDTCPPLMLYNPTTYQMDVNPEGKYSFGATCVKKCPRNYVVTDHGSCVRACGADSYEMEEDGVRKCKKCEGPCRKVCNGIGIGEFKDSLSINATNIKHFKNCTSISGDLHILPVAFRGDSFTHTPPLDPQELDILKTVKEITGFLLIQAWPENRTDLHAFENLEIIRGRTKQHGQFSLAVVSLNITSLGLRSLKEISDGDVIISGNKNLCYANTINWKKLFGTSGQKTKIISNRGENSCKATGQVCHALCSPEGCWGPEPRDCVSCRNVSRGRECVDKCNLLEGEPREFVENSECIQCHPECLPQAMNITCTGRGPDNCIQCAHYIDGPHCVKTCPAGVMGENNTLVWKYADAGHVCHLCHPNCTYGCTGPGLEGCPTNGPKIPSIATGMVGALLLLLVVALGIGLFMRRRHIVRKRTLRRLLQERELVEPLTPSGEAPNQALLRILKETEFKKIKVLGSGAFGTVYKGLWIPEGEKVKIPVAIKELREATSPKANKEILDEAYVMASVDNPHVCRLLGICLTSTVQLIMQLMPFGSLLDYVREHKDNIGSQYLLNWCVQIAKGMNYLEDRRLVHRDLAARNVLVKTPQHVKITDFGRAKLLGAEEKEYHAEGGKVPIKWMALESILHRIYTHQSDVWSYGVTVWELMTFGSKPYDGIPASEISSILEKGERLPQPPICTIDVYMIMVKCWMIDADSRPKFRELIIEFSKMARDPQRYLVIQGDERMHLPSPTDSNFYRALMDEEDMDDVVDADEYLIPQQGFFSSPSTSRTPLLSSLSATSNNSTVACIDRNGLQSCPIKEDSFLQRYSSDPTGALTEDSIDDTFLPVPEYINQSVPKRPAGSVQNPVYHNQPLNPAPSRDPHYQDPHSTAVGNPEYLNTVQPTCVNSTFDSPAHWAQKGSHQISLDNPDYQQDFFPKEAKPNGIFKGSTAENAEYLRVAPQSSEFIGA

Compound | IC50 [1] [nM] | IC50 [2] [nM] | IC50 [3] [nM] | IC50 [4] [nM] | further results
COc1cc(N2CCC(N3CC(C)(CO)C3)CC2)c(C)cc1Nc1ncc(Br)c(Nc2ccc3nccnc3c2P(C)(C)=O)n1 | 0.15 | 0.06 | 17.7 | – | –
COc1cc(N2CCC(N(C)CCN(C)C)CC2)c(C)cc1Nc1ncc(Br)c(Nc2ccc3nccnc3c2P(C)(C)=O)n1 | 0.15 | 0.06 | 16 | – | IC50 (A-431): 406 nM
CCc1cc(Nc2ncc(Cl)c(Nc3ccc4nccnc4c3P(C)(C)=O)n2)c(OC)cc1N1CCC(N2CC(N(C)C)C2)CC1 | 0.4 | 0.61 | 29.7 | > 500 | –
COCC1CN(C2CCN(c3cc(OC)c(Nc4ncc(Br)c(Nc5ccc6nccnc6c5P(C)(C)=O)n4)cc3C)CC2)C1 | 0.06 | 0.69 | 15 | – | –
COc1cc(N2CCC(N3CC(C(C)(C)O)C3)CC2)c(C)cc1Nc1ncc(Br)c(Nc2ccc3nccnc3c2P(C)(C)=O)n1 | 0.15 | 0.07 | 18 | – | –
COc1cc(N2CCC(N3CCN(C)CC3)CC2)ccc1Nc1ncc(Cl)c(Nc2ccccc2P(C)(C)=O)n1 [BRIGATINIB] | – | – | 433 | – | Cmax [5]: 927 ng/mL; AUC(0-t) at 24 h [6]: 6490 ng·h/mL; AUC(0-inf) [7]: 6500 ng·h/mL; half-life [8]: 2.8 h
COc1cc(N2CCC(N3CC(N(C)C)C3)CC2)c(C)cc1Nc1ncc(Br)c(Nc2ccc3nccnc3c2P(C)(C)=O)n1 | – | 0.06 | 12.7 | – | Cmax [5]: 1570 ng/mL; AUC(0-t) at 24 h [6]: 15400 ng·h/mL; AUC(0-inf) [7]: 15600 ng·h/mL; inhibition in vivo at 30 mg/kg [9]: 82.6%; half-life [8]: 3.5 h; MRT [10]: 6 h; inhibition in vivo at 15 mg/kg (PC-9 [11]): 21.6%; inhibition in vivo at 30 mg/kg (PC-9 [12]): 46.8%; inhibition in vivo at 15 mg/kg [13]: 48.4%
COc1cc(N2CCC(N3CC(N(C)C)C3)CC2)c(C)cc1Nc1ncc(SC)c(Nc2ccc3nccnc3c2P(C)(C)=O)n1 | 0.05 | 0.39 | 19.7 | – | –
COc1cc(N2CCC(N3C[C@H]4COC[C@H]4C3)CC2)c(C)cc1Nc1ncc(Br)c(Nc2ccc3nccnc3c2P(C)(C)=O)n1 | 0.12 | – | 11 | – | IC50 (A-431): 425 nM; Cmax [5]: 1360 ng/mL; AUC(0-t) at 24 h [6]: 11200 ng·h/mL; AUC(0-inf) [7]: 11200 ng·h/mL; half-life [8]: 3.3 h; MRT [10]: 5.6 h
COc1cc(N2CCC(N3CC(F)(CO)C3)CC2)c(C)cc1Nc1ncc(Br)c(Nc2ccc3nccnc3c2P(C)(C)=O)n1 | 0.1 | 0.13 | 18.7 | > 500 | IC50 (A-431): 808 nM; Cmax [5]: 1730 ng/mL; AUC(0-t) at 24 h [6]: 16900 ng·h/mL; AUC(0-inf) [7]: 17000 ng·h/mL; half-life [8]: 3.7 h; MRT [10]: 6.3 h
COc1cc(N2CCC(N3CC(CC#N)C3)CC2)c(C)cc1Nc1ncc(Br)c(Nc2ccc3nccnc3c2P(C)(C)=O)n1 | 0.12 | 0.33 | 12.7 | 461 | Cmax [5]: 1270 ng/mL; AUC(0-t) at 24 h [6]: 11200 ng·h/mL; AUC(0-inf) [7]: 11200 ng·h/mL; half-life [8]: 3.1 h; MRT [10]: 5.12 h
COc1cc(N2CCC(N3CC(CO)C3)CC2)c(C)cc1Nc1ncc(Br)c(Nc2ccc3nccnc3c2P(C)(C)=O)n1 | 0.34 | 0.57 | 41 | 590 | –
CCc1cc(Nc2ncc(Br)c(Nc3ccc4nccnc4c3P(C)(C)=O)n2)c(OC)cc1N1CCC(N2CC(N(C)C)C2)CC1 | – | 0.11 | 16.3 | – | –
COc1cc(N2CCC(N3CC[C@@H](N(C)C)C3)CC2)c(C)cc1Nc1ncc(Br)c(Nc2ccc3nccnc3c2P(C)(C)=O)n1 | 0.13 | – | 9 | – | –
CCOC1CN(C2CCN(c3cc(OC)c(Nc4ncc(Br)c(Nc5ccc6nccnc6c5P(C)(C)=O)n4)cc3C)CC2)C1 | – | 0.65 | 29 | – | –
COc1cc(N2CCC(N3CCN(C(C)=O)CC3)CC2)c(C)cc1Nc1ncc(Br)c(Nc2ccc3nccnc3c2P(C)(C)=O)n1 | 0.12 | 0.07 | 17.7 | 500 | IC50 (A-431): 578 nM
COCC1(C)CN(C2CCN(c3cc(OC)c(Nc4ncc(Br)c(Nc5ccc6nccnc6c5P(C)(C)=O)n4)cc3C)CC2)C1 | 0.81 | 0.3 | 22.3 | > 500 | –
CCc1cc(Nc2ncc(C(F)(F)F)c(Nc3ccc4nccnc4c3P(C)(C)=O)n2)c(OC)cc1N1CCC(N2CC(N(C)C)C2)CC1 | – | – | 54 | – | IC50 (A-431): 547 nM
COc1cc(N2CCC(N3CC(N(C)C)C3)CC2)c(C)cc1Nc1ncc(Cl)c(Nc2ccc3nccnc3c2P(C)(C)=O)n1 | 0.12 | 0.25 | 16.3 | – | –
